Results as given in patent publication US20120034193A1, “TREATMENT OF NEUROTROPHIC FACTOR MEDIATED DISORDERS” (priority 2009, published 2012).

Legend:
Rat sensory neurones = assay: Neuronal survival in sensory neurones; format: cell-based, Wistar rat; settings: 30 nM, 2 days
Protocol: Rat sensory neurones were obtained from Wistar rat embryos on the 15th day of gestation. Cells were cultured at 37° C. in 5% CO2/95% air atmosphere. Following 2 days of culturing with sarsasapogenin, smilagenin, vehicle (DMSO, 0.25%) or NGF, sensory neurones were rinsed twice with PBS and fixed in paraformaldehyde (4%) in PBS for 30 min at 4° C. Cells were permeabilised with Triton X-100 (0.1%) and non-specific sites were saturated using foetal bovine serum. Prior to staining, cells were incubated for 2 h at room temperature with a mixture of primary antibodies: anti-neurofilament 68 and 200 in PBS containing foetal bovine serum 5%. Prior to washing, slides were demounted and the cells were washed twice with PBS for 5 min, placed in a dark room for 1 h and incubated with a secondary antibody: anti-mouse coupled with cyanine 3 (Cy3; 1/1600) and an anti-rabbit coupled with fluoroisothiocyanate (FITC; 1/200) in PBS containing foetal bovine serum (5%). Slides were washed twice with PBS for 5 min and mounted on coverslips using Mowiol, an antioxidative solution (9% w/v) in glycerol (22%) buffered with Tris/HCl ([…]; pH 8.5). Slides were left overnight at room temperature to harden and stored in light protected conditions. Slides were viewed using a DAPI/FITC/Cy3 triple filter microscope with a ×20 objective. A series of photographs per well were taken at random using a digital camera.

[1] = Tissue distribution after a single oral administration, rat; format: in vivo; settings: 30 mg/kg single oral
Oestrogen = assay: Receptor binding assay; parameters: species or system Bovine; settings: sarsasapogenin 10 μM
Protocol: (§1) The receptor binding was investigated using the following method: Sarsasapogenin was incubated with tissue or cell homogenate that expressed the receptor of interest and a known concentration a radiolabelled compound with affinity for the receptor of interest. After the incubation period the non-bound radiolabelled compound was removed and the amount of specific binding was quantified. The amount of specific binding in the presence and absence of sarsasapogenin were compared and the percent inhibition of the binding of the radiolabelled compound by sarsasapogenin was calculated. The source of the receptor, the incubation conditions, the radiolabelled compound used varied depending on each specific assay.

Progesterone = assay: Receptor binding assay; parameters: species or system Bovine; settings: sarsasapogenin 10 μM
Protocol: as §1

[2] = Long term oral toxicity study, non-rodents; format: in vivo; settings: high doses, 39 weeks in non-rodents
[3] = system: rat primary cortical neurones; assay: Pre-treatment against glutamate-induced damage (LDH) in cortical neurones; format: cell-based; settings: for Neuronal survival (% of control): 24 h before and 24 h after glutamate 100 μM 10 min
Protocol: Exposure of rat primary cortical neurones to glutamate increases lactate dehydrogenase (LDH) activity measured 24 h after glutamate exposure, indicating significant neuronal damage. Rat cortical neurones were cultured by modification of a method previously described (Singer, et al., Neuroscience Letters, 1996, 212, pp. 13-16). On day 10 of culture, the medium was changed to a serum-free defined medium. On day 12, the cultures were washed and placed for 24 h in fresh medium containing test compound or vehicle (DMSO, 0.25%). On day 13 neurones were exposed to glutamate (100 μM; 10 min) at 37° C. The cultures were then washed with, and placed in, fresh medium supplemented with test compound or vehicle for a further 24 h before LDH was measured. Neuronal damage was assessed by measuring LDH activity in the media at 24 h after glutamate exposure.

Rat cortical neurones = assay: Neuronal survival and neurite outgrowth of cortical neurones cultured in the absence of serum; format: cell-based; settings: 30 nM, one day, no serum
Protocol: Rat cortical neurones were cultured following the method described above.
The test compounds were added for 24 h.
Rat cortical neurones were exposed to sarsasapogenin, smilagenin (30 nM) or vehicle (DMSO, 0.25%) in the absence FBS or FCS for one day. Cortical neurones were stained using a monoclonal antibody anti β-tubulin diluted and an anti mouse Immunoglobulin G diluted. These antibodies stained neurone cell bodies (quantifying the neuroprotective effect) and neurites (quantifying the neurotrophic effect). An epifluorecence microscope (magnification ×20) with a camera took 2 pictures per well (10 pictures per condition). Analyses of the number of cells labelled with anti β-tubulin antibodies and of the total number of cells was performed using LUCIA 6.0 software.

Q: What does the source list for C[C@H]1CC[C@@]2(OC1)O[C@H]1C[C@H]3[C@@H]4CC[C@@H]5C[C@@H](O)CC[C@]5(C)[C@H]4CC[C@]3(C)[C@H]1[C@@H]2C [Sarsasapogenin, sarsasapogenin]?
A: Neuronal survival (% of control) (Rat sensory neurones): 130.83 ± 1.75 % of control; Concentration of compound, Brain ([1]; Rat F, 1 h): 1210 ng equivalents/g tissue; Concentration of compound, Plasma ([1]; Rat F, 1 h): 1530 ng equivalents/g tissue; Concentration of compound, Spinal cord ([1]; Rat F, 1 h): 3020 ng equivalents/g tissue; Concentration of compound, Brain ([1]; Rat F, 4 h): 3860 ng equivalents/g tissue; Concentration of compound, Plasma ([1]; Rat F, 4 h): 2050 ng equivalents/g tissue; Concentration of compound, Spinal cord ([1]; Rat F, 4 h): 3830 ng equivalents/g tissue; Concentration of compound, Brain ([1]; Rat F, 8 h): 5980 ng equivalents/g tissue; Concentration of compound, Plasma ([1]; Rat F, 8 h): 1760 ng equivalents/g tissue; Concentration of compound, Spinal cord ([1]; Rat F, 8 h): 5080 ng equivalents/g tissue; Concentration of compound, Brain ([1]; Rat F, 24 h): 2800 ng equivalents/g tissue; Concentration of compound, Plasma ([1]; Rat F, 24 h): 629 ng equivalents/g tissue; Concentration of compound, Spinal cord ([1]; Rat F, 24 h): 3290 ng equivalents/g tissue; Concentration of compound, Brain ([1]; Rat F, 168 h): 134 ng equivalents/g tissue; Concentration of compound, Plasma ([1]; Rat F, 168 h): 90 ng equivalents/g tissue; Concentration of compound, Spinal cord ([1]; Rat F, 168 h): 590 ng equivalents/g tissue; Concentration of compound, Brain ([1]; Rat M, 1 h): 1140 ng equivalents/g tissue; Concentration of compound, Plasma ([1]; Rat M, 1 h): 1690 ng equivalents/g tissue; Concentration of compound, Spinal cord ([1]; Rat M, 1 h): 1090 ng equivalents/g tissue; Concentration of compound, Brain ([1]; Rat M, 4 h): 4970 ng equivalents/g tissue; Concentration of compound, Plasma ([1]; Rat M, 4 h): 2920 ng equivalents/g tissue; Concentration of compound, Spinal cord ([1]; Rat M, 4 h): 4350 ng equivalents/g tissue; Concentration of compound, Brain ([1]; Rat M, 8 h): 6920 ng equivalents/g tissue; Concentration of compound, Plasma ([1]; Rat M, 8 h): 2970 ng equivalents/g tissue; Concentration of compound, Spinal cord ([1]; Rat M, 8 h): 6060 ng equivalents/g tissue; Concentration of compound, Brain ([1]; Rat M, 24 h): 3800 ng equivalents/g tissue; Concentration of compound, Plasma ([1]; Rat M, 24 h): 967 ng equivalents/g tissue; Concentration of compound, Spinal cord ([1]; Rat M, 24 h): 4720 ng equivalents/g tissue; Concentration of compound, Brain ([1]; Rat M, 168 h): 194 ng equivalents/g tissue; Concentration of compound, Plasma ([1]; Rat M, 168 h): 149 ng equivalents/g tissue; Concentration of compound, Spinal cord ([1]; Rat M, 168 h): 747 ng equivalents/g tissue; Effect (%) (Oestrogen): NS (NS = No significant response. Significance was taken as ≧30% stimulation or inhibition); Effect (%) (Progesterone): NS (NS = No significant response. Significance was taken as ≧30% stimulation or inhibition); Long term toxicity [2]: without showing any signs of toxicity or adverse events; Neuronal survival (% of control) ([3]; 1 nM): 76.88 ± 2.79 % of control; Neuronal survival (% of control) ([3]; 3 nM): 77.23 ± 2.62 % of control; Neuronal survival (% of control) ([3]; 10 nM): 73.50 ± 3.05 % of control; Neuronal survival (% of control) ([3]; 30 nM): 78.91 ± 2.97 % of control; Neuronal survival (% of control) ([3]; 100 nM): 76.30 ± 4.15 % of control; Toxicity at the plateau of activity ([3]; nanomolar concentration, cortical neurones in vitro): without causing any toxicity; Neurite outgrowth (% of control) (Rat cortical neurones): 152.85 ± 10.68 % of control; Neuronal survival (% of control) (Rat cortical neurones): 149.55 ± 6.22 % of control
